# Source: PubChem BioAssay (NCI)
#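 Five concentrations, 48 hours, 96-well plates. GI50: concentration for 50% inhibition of growth. TGI: total growth inhibition.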
# What was measured:
# Assay in all cases: DTP human tumour cell line panel, 48 h
# [1] = test system: MALME-3M melanoma
# [2] = test system: OVCAR-8 ovarian
# [3] = test system: SF-268 CNS
# [4] = test system: SK-MEL-2 melanoma
# [5] = test system: NCI-H460 lung
# [6] = test system: UACC-62 melanoma
# [7] = test system: NCI-H522 lung
# [8] = test system: KM12 colon
# [9] = test system: MOLT-4 leukemia
# [10] = test system: CAKI-1 renal
# [11] = test system: COLO 205 colon
# [12] = test system: SNB-19 CNS
# [13] = test system: HOP-92 NSCLC
# [14] = test system: M14 melanoma
# [15] = test system: SK-MEL-5 melanoma
# [16] = test system: 786-0 renal
# [17] = test system: MDA-MB-435
# [18] = test system: SN12C renal
# [19] = test system: HCT-116 colon
# [20] = test system: RPMI-8226 leukemia
# [21] = test system: HS 578T breast
# [22] = test system: T-47D breast
# [23] = test system: UO-31 renal
# [24] = test system: DU-145 prostate
# [25] = test system: A549 NSCLC
# [26] = test system: SF-295 CNS
# [27] = test system: NCI/ADR-RES ovarian
# [28] = test system: SR leukemia
# [29] = test system: LOX IMVI melanoma
# [30] = test system: HCC-2998 colon
# [31] = test system: HOP-62 NSCLC
# [32] = test system: OVCAR-3 ovarian
# [33] = test system: A498 renal
# [34] = test system: PC-3 prostate
# [35] = test system: NCI-H23 lung
# [36] = test system: SK-OV-3 ovarian
# [37] = test system: K-562 leukemia
# [38] = test system: NCI-H226 lung
# [39] = test system: MCF7 breast
# [40] = test system: U251 CNS
# [41] = test system: SK-MEL-28 melanoma
# [42] = test system: CCRF-CEM leukemia
# [43] = test system: OVCAR-5 ovarian
# [44] = test system: TK-10 renal
# [45] = test system: OVCAR-4 ovarian
# [46] = test system: HCT-15 colon
# [47] = test system: RXF 393 renal
# [48] = test system: ACHN renal
# [49] = test system: IGROV1 ovarian
smiles,measurement,setting,value
O=C1C(Cl)=C(Nc2cccc(O)c2)C(=O)N1c1ccc(Cl)c(Cl)c1,GI50,[1],19.7 µM
same,TGI,[1],55 µM
same,GI50,[2],23.6 µM
same,TGI,[2],52.2 µM
same,GI50,[3],23.8 µM
same,TGI,[3],62.3 µM
same,GI50,[4],54.8 µM
same,TGI,[4],> 100 µM
same,GI50,[5],19.1 µM
same,TGI,[5],50.5 µM
same,GI50,[6],27.6 µM
same,TGI,[6],> 100 µM
same,GI50,[7],30 µM
same,TGI,[7],> 100 µM
same,GI50,[8],17 µM
same,TGI,[8],32.5 µM
same,GI50,[9],15.1 µM
same,TGI,[9],> 100 µM
same,GI50,[10],22.8 µM
same,TGI,[10],59.1 µM
same,GI50,[11],32 µM
same,TGI,[11],89.9 µM
same,GI50,[12],36 µM
same,TGI,[12],> 100 µM
same,GI50,[13],21.8 µM
same,TGI,[13],70.6 µM
same,GI50,[14],18.9 µM
same,TGI,[14],37.4 µM
same,GI50,[15],20 µM
same,TGI,[15],64.7 µM
same,GI50,[16],17.7 µM
same,TGI,[16],35.3 µM
same,GI50,[17],21.9 µM
same,TGI,[17],59.6 µM
same,GI50,[18],18.1 µM
same,TGI,[18],39.4 µM
same,GI50,[19],18.4 µM
same,TGI,[19],33.9 µM
same,GI50,[20],15.9 µM
same,TGI,[20],57.7 µM
same,GI50,[21],20.5 µM
same,TGI,[21],54.3 µM
same,GI50,[22],41 µM
same,TGI,[22],> 100 µM
same,GI50,[23],31.7 µM
same,TGI,[23],> 100 µM
same,GI50,[24],19.3 µM
same,TGI,[24],42.1 µM
same,GI50,[25],23.9 µM
same,TGI,[25],60.6 µM
same,GI50,[26],25.9 µM
same,TGI,[26],83.5 µM
same,GI50,[27],22.4 µM
same,TGI,[27],52.3 µM
same,GI50,[28],14.2 µM
same,TGI,[28],67.1 µM
same,GI50,[29],15.8 µM
same,TGI,[29],33.3 µM
same,GI50,[30],15 µM
same,TGI,[30],29.5 µM
same,GI50,[31],16.4 µM
same,TGI,[31],32.5 µM
same,GI50,[32],17.9 µM
same,TGI,[32],36.4 µM
same,GI50,[33],12.1 µM
same,TGI,[33],28.7 µM
same,GI50,[34],19 µM
same,TGI,[34],49.6 µM
same,GI50,[35],15.4 µM
same,TGI,[35],31.3 µM
same,GI50,[36],25.5 µM
same,TGI,[36],73.3 µM
same,GI50,[37],25.5 µM
same,TGI,[37],> 100 µM
same,GI50,[38],19.7 µM
same,TGI,[38],46.6 µM
same,GI50,[39],25.1 µM
same,TGI,[39],85.1 µM
same,GI50,[40],15.5 µM
same,TGI,[40],30.9 µM
same,GI50,[41],40.6 µM
same,TGI,[41],> 100 µM
same,GI50,[42],25.2 µM
same,TGI,[42],74.6 µM
same,GI50,[43],18 µM
same,TGI,[43],35.5 µM
same,GI50,[44],25.7 µM
same,TGI,[44],63.8 µM
same,GI50,[45],34.4 µM
same,TGI,[45],> 100 µM
same,GI50,[46],19.9 µM
same,TGI,[46],45.5 µM
same,GI50,[47],14.5 µM
same,TGI,[47],42.2 µM
same,GI50,[48],17.3 µM
same,TGI,[48],33.3 µM
same,GI50,[49],28.4 µM
same,TGI,[49],> 100 µM
